Experimental data reported in US12209092B2, “Inhibitors of GLI1 as therapeutic agents” (NEW YORK UNIVERSITY, priority 2018, dated 2025).
Read-outs that look alike come from different tables or passages of the source.

Tested on: Gli1-mediated transcription
Test: Gli1-mediated transcriptional luciferase reporter assay
Format: cell-based
Details: Shh-LIGHT2 cells, antagonist mode, purmorphamine 1.5 μM stimulation, 24 h
Experimental: Gli1-mediated transcriptional luciferase reporter assay was performed using Shh-LIGHT2 cells in order to evaluate the effects on activation and inhibition of Gli1-mediated transcription by the compounds of the disclosure. Brief assay procedure is provided below. […] Shh-LIGHT2 cells were harvested from about 80% confluent 10-cm dish using 0.25% Trypsin-EDTA solution. Medium was removed, and cells were washed with 5 mL DPBS and aspirated. Then, 1 mL 0.25% Trypsin-EDTA solution was added to a 10-cm dish. The dish was placed in the incubator for 1-3 minutes, or until cells have detached. 3 mL of cell growth medium (DMEM, 10% FBS, 1% PenStrep, 1% sodium pyruvate, and 1% GlutaMax) was added to the 10-cm dish, and the contents were transferred to a conical tube. […] The cell assay plate was removed from incubator after cells reached confluency. The culture medium was then manually removed from the cell plates, and the plates were centrifuged at 200 rpm for 30 seconds. […] After 30 min incubation of antagonist, cells were stimulated with agonist (purmorphamine, 5 μL, 1.5 μM final), then incubate for 24 h at 37° C./5% CO2. […] Luciferase assay: After incubation, the cell assay plate was allowed to acclimate to room temperature. Then, 20 μL of Duo-Glo® Luciferase Reagent (Promega) was added to each well of cell assay plate. The plate was briefly spun down, mixed, and incubated for 30 minutes at room temperature. The cell plate was read using luminometer for firefly luminescence activity. Then, 20 μL of Duo-Glo® Step&Glo® Reagent (Promega) was added to each well of cell assay plate. The plate was briefly spun down, mixed, and incubated for 30 minutes at room temperature. The cell plate was read using luminometer for Renilla luminescence activity. Ratio of firefly: Renilla luminescence was calculated for each well. The compound well ratio was normalized to the ratio from a control well.

[1] = firefly luminescence, read-out: Gli1 IC50 firefly
[2] = ratio of firefly:Renilla luminescence, read-out: Gli1 IC50 firefly:Renilla ratio

SMILES: Fc1ccccc1-c1nc2c([nH]1)CN(C1CCc3cc(Cl)ccc3C1)CC2 (stereo not drawn) [Example 70, 5-(6-chloro-1,2,3,4-tetrahydronaphthalen-2-yl)-2-(2-fluorophenyl)-4,5,6,7-tetrahydro-3H-imidazo[4,5-c]pyridine]
- IC50 [1]: 1000 to 50000 nM
- IC50 [2]: 1000 to 50000 nM

SMILES: COc1cccc2c1CC(N1CCc3nc(-c4ccccc4Cl)n(CCO)c3C1)CC2 (stereo not drawn) [Example 130, 2-(2-(2-chlorophenyl)-5-(8-methoxy-1,2,3,4-tetrahydronaphthalen-2-yl)-4,5,6,7-tetrahydro-3H-imidazo[4,5-c]pyridin-3-yl)ethan-1-ol]
- IC50 [1]: 1000 to 50000 nM
- IC50 [2]: 1000 to 50000 nM

SMILES: Clc1ccccc1-c1nc2c([nH]1)CN(C1CCc3cccc(Cl)c31)CC2 (stereo not drawn) [Example 106, 5-(7-chloro-2,3-dihydro-1H-inden-1-yl)-2-(2-chlorophenyl)-4,5,6,7-tetrahydro-3H-imidazo[4,5-c]pyridine]
- IC50 [1]: 1000 to 50000 nM
- IC50 [2]: 1000 to 50000 nM

SMILES: Cn1c(-c2ccccc2Cl)nc2c1CCC(N1CCc3cccc(Cl)c3C1)C2 (stereo not drawn) [Example 188, 8-chloro-2-(2-(2-chlorophenyl)-1-methyl-4,5,6,7-tetrahydro-1H-benzo[d]imidazol-5-yl)-1,2,3,4-tetrahydroisoquinoline]
- IC50 [1]: < 100 nM
- IC50 [2]: < 100 nM

SMILES: COc1cccc(-c2nc3c([nH]2)CN(C2CCc4ccc(OC)cc4C2)CC3)c1 (stereo not drawn) [Example 4, 5-(7-methoxy-1,2,3,4-tetrahydronaphthalen-2-yl)-2-(3-methoxyphenyl)-4,5,6,7-tetrahydro-3H-imidazo [4,5-c]pyridine]
- IC50 [1]: 500 to 990 nM
- IC50 [2]: 1000 to 50000 nM

SMILES: Clc1ccc2c(c1)CC(N1CCc3nc(-c4cc(Br)ccc4Cl)[nH]c3C1)CC2 (stereo not drawn) [Example 30, 2-(5-bromo-2-chlorophenyl)-5-(7-chloro-1,2,3,4-tetrahydronaphthalen-2-yl)-4,5,6,7-tetrahydro-3H-imidazo[4,5-c]pyridine]
- IC50 [1]: 1000 to 50000 nM
- IC50 [2]: 500 to 990 nM

SMILES: COc1cccc2c1CC(N1CCc3nc(-c4ccccc4F)[nH]c3C1)CC2 (stereo not drawn) [Example 9, 2-(2-fluorophenyl)-5-(8-methoxy-1,2,3,4-tetrahydronaphthalen-2-yl)-4,5,6,7-tetrahydro-3H-imidazo[4,5-c]pyridine]
- IC50 [1]: 500 to 990 nM
- IC50 [2]: 1000 to 50000 nM

SMILES: Clc1cnccc1-c1nc2c([nH]1)CN(C1CCc3cccc(Cl)c3C1)CC2 (stereo not drawn) [Example 17, 5-(8-chloro-1,2,3,4-tetrahydronaphthalen-2-yl)-2-(3-chloropyridin-4-yl)-4,5,6,7-tetrahydro-3H-imidazo[4,5-c]pyridine]
- IC50 [1]: 500 to 990 nM
- IC50 [2]: 1000 to 50000 nM

SMILES: Cc1cn(-c2ccc3c(c2)CCC(N2CCc4nc(-c5ccccc5Cl)[nH]c4C2)C3)cn1 (stereo not drawn) [Example 32, 2-(2-chlorophenyl)-5-(6-(4-methyl-1H-imidazol-1-yl)-1,2,3,4-tetrahydronaphthalen-2-yl)-4,5,6,7-tetrahydro-3H-imidazo[4,5-c]pyridine]
- IC50 [1]: 1000 to 50000 nM
- IC50 [2]: 1000 to 50000 nM

SMILES: Clc1ccccc1-c1nc2c([nH]1)CN(C1CCc3ccc(C#CC4CC4)cc3C1)CC2 (stereo not drawn) [Example 35, 2-(2-chlorophenyl)-5-(7-(cyclopropylethynyl)-1,2,3,4-tetrahydronaphthalen-2-yl)-4,5,6,7-tetrahydro-3H-imidazo[4,5-c]pyridine]
- IC50 [1]: 1000 to 50000 nM
- IC50 [2]: 1000 to 50000 nM

SMILES: Clc1ccccc1-c1nc2c([nH]1)CN([C@@H]1CCc3cccc(Cl)c3C1)CC2 [Example 1-R, (R)-5-(8-chloro-1,2,3,4-tetrahydronaphthalen-2-yl)-2-(2-chlorophenyl)-4,5,6,7-tetrahydro-3H-imidazo[4,5-c]pyridine]
- IC50 [1]: 100 to 490 nM
- IC50 [2]: 100 to 490 nM

SMILES: CN1C2=C(CCN([C@H]3CCc4cccc(Cl)c4C3)C2)NC1c1ccccc1Cl (stereo partly drawn) [Example 18-S, 5-((S)-8-chloro-1,2,3,4-tetrahydronaphthalen-2-yl)-2-(2-chlorophenyl)-3-methyl-2,3,4,5,6,7-hexahydro-1H-imidazo[4,5-c]pyridine]
- IC50 [1]: 100 to 490 nM
- IC50 [2]: 100 to 490 nM
